Results taken from PubChem BioAssay (NCI).
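Where inhibition never reached the appropriate level, the endpoint shown equals the highest concentration tested. Otherwise, values were interpolated linearly from a five-concentration, 48-hour dose response in 96-well plates. TGI: concentration producing complete growth inhibition.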

Columns and labels:
Assay in all cases: NCI anticancer screen, dose series, 48 h
KM12 colon = test system: KM12 colon
UO-31 renal = test system: UO-31 renal
HS 578T breast = test system: HS 578T breast
SNB-19 CNS = test system: SNB-19 CNS
CCRF-CEM leukemia = test system: CCRF-CEM leukemia
HOP-62 NSCLC = test system: HOP-62 NSCLC
EKVX NSCLC = test system: EKVX NSCLC
IGROV1 ovarian = test system: IGROV1 ovarian
MDA-N = test system: MDA-N
OVCAR-8 ovarian = test system: OVCAR-8 ovarian
SF-268 CNS = test system: SF-268 CNS
RXF 393 renal = test system: RXF 393 renal
HCC-2998 colon = test system: HCC-2998 colon
UACC-257 melanoma = test system: UACC-257 melanoma
SK-MEL-5 melanoma = test system: SK-MEL-5 melanoma
CAKI-1 renal = test system: CAKI-1 renal
HCT-15 colon = test system: HCT-15 colon
UACC-62 melanoma = test system: UACC-62 melanoma
U251 CNS = test system: U251 CNS
SF-295 CNS = test system: SF-295 CNS
SK-MEL-28 melanoma = test system: SK-MEL-28 melanoma
HOP-92 NSCLC = test system: HOP-92 NSCLC
NCI/ADR-RES ovarian = test system: NCI/ADR-RES ovarian
SNB-75 CNS = test system: SNB-75 CNS
NCI-H460 lung = test system: NCI-H460 lung
K-562 leukemia = test system: K-562 leukemia
MDA-MB-435 = test system: MDA-MB-435
NCI-H522 lung = test system: NCI-H522 lung
HT29 colon = test system: HT29 colon
A498 renal = test system: A498 renal
PC-3 prostate = test system: PC-3 prostate
786-0 renal = test system: 786-0 renal
SK-MEL-2 melanoma = test system: SK-MEL-2 melanoma
SF-539 CNS = test system: SF-539 CNS
NCI-H23 lung = test system: NCI-H23 lung
SN12C renal = test system: SN12C renal
A549 NSCLC = test system: A549 NSCLC
NCI-H226 lung = test system: NCI-H226 lung
DU-145 prostate = test system: DU-145 prostate
SW-620 colon = test system: SW-620 colon
OVCAR-3 ovarian = test system: OVCAR-3 ovarian
LOX IMVI melanoma = test system: LOX IMVI melanoma
HCT-116 colon = test system: HCT-116 colon
OVCAR-5 ovarian = test system: OVCAR-5 ovarian
HL-60(TB) leukemia = test system: HL-60(TB) leukemia
MALME-3M melanoma = test system: MALME-3M melanoma
BT-549 breast = test system: BT-549 breast
TK-10 renal = test system: TK-10 renal
MDA-MB-231 breast = test system: MDA-MB-231 breast
MOLT-4 leukemia = test system: MOLT-4 leukemia
SK-OV-3 ovarian = test system: SK-OV-3 ovarian
M14 melanoma = test system: M14 melanoma
COLO 205 colon = test system: COLO 205 colon
OVCAR-4 ovarian = test system: OVCAR-4 ovarian
ACHN renal = test system: ACHN renal
RPMI-8226 leukemia = test system: RPMI-8226 leukemia
SR leukemia = test system: SR leukemia
MCF7 breast = test system: MCF7 breast
T-47D breast = test system: T-47D breast

Measured: TGI

CC(OC(C)(C)C)[C@H](NC(=O)OCc1ccccc1)C(=O)NC(OCc1ccccc1)[C@H]1COC(C)(C)O1 (some centres not stated)
> 100 µM: SF-268 CNS | RXF 393 renal | SK-MEL-28 melanoma | A549 NSCLC | DU-145 prostate | HCT-116 colon
not listed: RPMI-8226 leukemia | SR leukemia | MCF7 breast | T-47D breast
> 10 µM: all other assays above

CC1CC(NN)=Nc2ccccc2N1 (configuration not stated)
not listed: RXF 393 renal | HCC-2998 colon | HOP-92 NSCLC | SNB-75 CNS | SF-539 CNS | LOX IMVI melanoma | SR leukemia | MCF7 breast | T-47D breast
> 100 µM: all other assays above

NC(=O)C(N)CC12CC3CC(CC(C3)C1)C2 (configuration not stated)
97.5 µM: EKVX NSCLC
> 100 µM: CAKI-1 renal | HCT-15 colon | SNB-75 CNS | NCI-H460 lung | K-562 leukemia | A549 NSCLC | SW-620 colon | SK-OV-3 ovarian | ACHN renal
92.5 µM: SF-268 CNS
43.5 µM: SR leukemia
34.7 µM: U251 CNS
41.7 µM: MDA-MB-231 breast
44.9 µM: MCF7 breast
51.7 µM: NCI-H23 lung
49.3 µM: HCC-2998 colon
72.6 µM: HT29 colon
37.4 µM: M14 melanoma
28.7 µM: MDA-N
42.4 µM: OVCAR-5 ovarian
55 µM: SK-MEL-2 melanoma
51.9 µM: PC-3 prostate
32.5 µM: RXF 393 renal
65.4 µM: OVCAR-8 ovarian
44 µM: MDA-MB-435
40.7 µM: 786-0 renal
30.4 µM: HOP-92 NSCLC
28.5 µM: SK-MEL-5 melanoma
33.7 µM: DU-145 prostate
30.7 µM: HCT-116 colon
55.4 µM: SK-MEL-28 melanoma
54.6 µM: SNB-19 CNS
41.2 µM: SN12C renal
91.7 µM: NCI/ADR-RES ovarian
63.7 µM: CCRF-CEM leukemia
64.7 µM: OVCAR-4 ovarian
58.1 µM: MOLT-4 leukemia
85.3 µM: TK-10 renal
29.9 µM: LOX IMVI melanoma
28.3 µM: UACC-62 melanoma
76.7 µM: UACC-257 melanoma
54.9 µM: SF-295 CNS
44.2 µM: UO-31 renal
47.3 µM: RPMI-8226 leukemia
44.4 µM: NCI-H522 lung
47.8 µM: KM12 colon
42.6 µM: HS 578T breast

CC(NC(=O)OC(C)(C)C)C(=O)NC(Cc1ccccc1)C(=O)NCC(=O)ON=C1CCCC1 (configuration not stated)
not listed: HS 578T breast
> 100 µM: all other assays above

COC(=O)C1(C(=O)OC)CC(=O)c2c(OC(=O)c3cccc(OC)c3C#N)ccc(OC(=O)c3cccc(OC)c3C#N)c2C1
not listed: SK-MEL-2 melanoma | BT-549 breast | T-47D breast
> 100 µM: all other assays above
